Results: publication PMC6017406, “Synthesis and Physicochemical Evaluation of Entecavir-Fatty Acid Conjugates in Reducing Food Effect on Intestinal Absorption” (Molecules : A Journal of Synthetic Chemistry and Natural …, 2018)
Converted amounts (≈) assume the structure as drawn. Where two headings read alike, the source gives them in different places.

Columns and labels:
[1] = set-up: method as in earlier work; conditions: oral 0.5 mg with high-fat meal (945 kcal, 54.6 g fat); cited from earlier work
[2] = set-up: method as in PMID 27503646; conditions: cited from earlier work
[3] = In vitro dissolution test in biorelevant media (USP 29 paddle method); type: physicochemical
Protocol: The United States Pharmacopeia 29 paddle method was used to assess the release profile of EV-C12 powder using a VK 7000 dissolution tester (Varian Medical Industries, Palo Alto, CA, USA). The EV-FA powder equivalent to 0.5 mg of the parent compound was immersed in 900 mL of biorelevant media maintained at 37 °C ± 0.1 °C at a paddle speed of 50 rpm. At fixed time intervals, aliquots (about 4 mL) were drawn and centrifuged at 13,000 rpm for 10 min. An equal volume of the test medium pre-warmed at 37 °C ± 0.1 °C was used for immediate replacement. The supernatant was appropriately diluted with methanol and the drug concentration in the supernatant was assayed by HPLC, as described earlier.

[4] = Equilibrium solubility in biorelevant media; type: physicochemical; conditions: for solubility thermodynamic at 3 days: thermodynamic from solid, mean ± SD (n = 3)
Protocol: The equilibrium solubilities of lipidic prodrugs in biorelevant media such as FaSSGF, FeSSGF, FaSSIF, and FeSSIF [32, 33] were assessed. FaSSGF was prepared with 0.08 mM of sodium taurocholate, 0.02 mM of lecithin, and 34.2 mM of NaCl in 1000 mL of distilled water (pH 1.6). FaSSIF was prepared with 3 mM of sodium taurocholate, 0.2 mM of lecithin, 19.1 mM of malate, 68.62 mM of NaCl, and 34.8 mM of NaOH in 1000 mL of distilled water (pH 6.5, osmolality: 270 mOsm∙kg^−1). FeSSGF was prepared with 230.0 mM of NaCl, 17.1 mM of acetic acid, and 29.75 mM of sodium acetate, in 1000 mL of mixture of milk (full fat 3.5%) and distilled water (pH 5.0, osmolality: 400 mOsm∙kg^−1). FeSSIF was prepared with 10 mM of sodium taurocholate, 2 mM of lecithin, 5 mM of glyceryl monooleate, 0.8 mM of sodium oleate, 55.0 mM of malate, 125.5 mM of NaCl, and 81.6 mM of NaOH in 1000 mL of distilled water (pH 5.8, osmolality: 390 mOsm∙kg^−1).
An excess amount of drug (500 mg) was added to biorelevant media in a scintillation vial. Drug suspensions were sonicated for 30 min and then shaken at 37 °C for 3 days using a shaking incubator. Samples were then centrifuged at 13,000 rpm for 10 min and the supernatant was appropriately diluted with mobile phase. The concentration of EV-FA in the medium was analyzed using HPLC as described above.

[5] = Hydrolysis in simulated gastric fluid (pH 1.2); type: physicochemical; conditions: simulated gastric fluid pH 1.2, 37 °C, after 12 h, 20 μg/mL
Protocol: To estimate the chemical stability of these synthesized ester prodrugs in the stomach, their hydrolysis behavior was evaluated in simulated gastric fluid (pH 1.2). Each compound (10 mg) was dissolved in ethanol (10 mL) and then serially diluted with simulated gastric fluid at a drug concentration of 20 μg/mL. […]

[6] = set-up: method as in PMID 14498759; conditions: humans; cited from earlier work
[7] = fassgf or other biorelevant, FaSSGF pH 1.6, 37 °C, read-out: Equilibrium solubility FaSSGF
[8] = fassgf or other biorelevant, FeSSGF pH 5.0, 37 °C, read-out: Equilibrium solubility FeSSGF
[9] = FaSSIF pH 6.5, 37 °C, read-out: Equilibrium solubility FaSSIF
[10] = FeSSIF pH 5.8, 37 °C, read-out: Equilibrium solubility FeSSIF
[11] = all biorelevant media, 37 °C, 50 rpm

C=C1[C@H](CO)[C@@H](O)C[C@@H]1n1cnc2c(=O)nc(N)[nH]c21 [EV, 2-amino-9-[(1S,3R,4S)-4-hydroxy-3-(hydroxymethyl)-2-methylidenecyclopentyl]-3H-purin-6-one, reference compound]
Decrease in maximum drug concentration in plasma [1]: 44–46%
pKa [2]: 10.5
Solubility ([2]; distilled water at 25 °C): 2400 µg/mL (≈ 8660 µM)
logP ([2]; pH 4 to 10): −1.110
Time to complete release ([3]; all biorelevant media (FaSSGF, FaSSIF, FeSSGF, FeSSIF), 37 °C, 50 rpm): ≤ 15 min
solubility at 3 days ([4]; biorelevant media (FaSSGF, fassgf or other biorelevant, thermodynamic from solid), FaSSGF, FaSSIF, FeSSGF, FeSSIF, 37 °C, read-out: Aqueous solubility in all media tested): > 1600 µg/mL
solubility thermodynamic at 3 days [4, 7]: 8940 ± 92 µg/mL (≈ 32200 µM)
solubility thermodynamic at 3 days [4, 8]: 2152 ± 13 µg/mL (≈ 7760 µM)
solubility thermodynamic at 3 days [4, 9]: 1620 ± 23 µg/mL (≈ 5860 µM)
solubility thermodynamic at 3 days [4, 10]: 2240 ± 52 µg/mL (≈ 8080 µM)

C=C1[C@H](COC(=O)CCCCC)[C@@H](O)C[C@@H]1n1cnc2c(=O)[nH]c(N)nc21 [EV-C6, (1R,3S,5S)-3-(2-Amino-6-oxo-1H-purin-9(6H)-yl)-5-hydroxy-2-methylenecyclopentyl)methyl hexanoate]
solubility thermodynamic at 3 days [4, 7]: 4.84 ± 0.5 µg/mL (≈ 12.9 µM)
solubility thermodynamic at 3 days [4, 8]: 24.9 ± 1.4 µg/mL (≈ 66.3 µM)
solubility thermodynamic at 3 days [4, 9]: 5.54 ± 0.6 µg/mL (≈ 14.8 µM)
solubility thermodynamic at 3 days [4, 10]: 25.2 ± 2.3 µg/mL (≈ 67.1 µM)
Hydrolyzed percentage [5]: 59.1%

C=C1[C@H](COC(=O)CCCCCCC)[C@@H](O)C[C@@H]1n1cnc2c(=O)[nH]c(N)nc21 [EV-C8, ((1R,3S,5S)-3-(2-Amino-6-oxo-1H-purin-9(6H)-yl)-5-hydroxy-2-methylenecyclopentyl)methyl octanoate]
solubility thermodynamic at 3 days [4, 7]: 4.74 ± 0.3 µg/mL (≈ 11.7 µM)
solubility thermodynamic at 3 days [4, 8]: 38.2 ± 1.5 µg/mL (≈ 94.7 µM)
solubility thermodynamic at 3 days [4, 9]: 5.74 ± 0.3 µg/mL (≈ 14.2 µM)
solubility thermodynamic at 3 days [4, 10]: 36.7 ± 1.2 µg/mL (≈ 91 µM)
Hydrolyzed percentage [5]: 46.2%

C=C1[C@H](COC(=O)CCCCCCCCC)[C@@H](O)C[C@@H]1n1cnc2c(=O)[nH]c(N)nc21 [EV-C10, ((1R,3S,5S)-3-(2-Amino-6-oxo-1H-purin-9(6H)-yl)-5-hydroxy-2-methylenecyclopentyl)methyl decanoate]
solubility thermodynamic at 3 days [4, 7]: 4.41 ± 0.1 µg/mL (≈ 10.2 µM)
solubility thermodynamic at 3 days [4, 8]: 61.9 ± 3.2 µg/mL (≈ 143 µM)
solubility thermodynamic at 3 days [4, 9]: 6.47 ± 0.6 µg/mL (≈ 15 µM)
solubility thermodynamic at 3 days [4, 10]: 66.6 ± 4.4 µg/mL (≈ 154 µM)
Hydrolyzed percentage [5]: 44.4%

C=C1[C@H](COC(=O)CCCCCCCCCCC)[C@@H](O)C[C@@H]1n1cnc2c(=O)[nH]c(N)nc21 [EV-C12, ((1R,3S,5S)-3-(2-Amino-6-oxo-1H-purin-9(6H)-yl)-5-hydroxy-2-methylenecyclopentyl)methyl dodecanoate]
Percent released within 30 min [3, 11]: more than 50%
Percent released/dissolved within 2 h [3, 11]: more than 90%
Concentration of EV in dissolution medium formed by hydrolysis of the lipidic compound ([3]; all media): less than 1%
Release rate constant (Hixon-Crowell cube-root model) ([3]; fourth medium listed (presumably FeSSIF), r^2 = 0.933): 0.053 mg^1/3/h
Release rate constant (Hixon-Crowell cube-root model) ([3]; second medium listed (presumably FaSSIF), r^2 = 0.914): 0.036 mg^1/3/h
Release rate constant (Hixon-Crowell cube-root model) ([3]; third medium listed (presumably FeSSGF), r^2 = 0.879): 0.048 mg^1/3/h
solubility thermodynamic at 3 days [4, 7]: 4.82 ± 0.2 µg/mL (≈ 10.5 µM)
solubility thermodynamic at 3 days [4, 8]: 76.6 ± 4 µg/mL (≈ 167 µM)
solubility thermodynamic at 3 days [4, 9]: 6.5 ± 0.2 µg/mL (≈ 14.1 µM)
solubility thermodynamic at 3 days [4, 10]: 78.8 ± 7.7 µg/mL (≈ 171 µM)
Hydrolyzed percentage [5]: 22.5%

CC(C)(C)C(=O)OCOP(=O)(COCCn1cnc2c(N)ncnc21)OCOC(=O)C(C)(C)C [adefovir dipivoxil]
Oral bioavailability [6]: 59%

Nc1ncnc2c1ncn2CCOCP(=O)(O)O [hydrophilic parent compound]
Oral bioavailability [6]: 12%
